Assay results as given in the supplement of paper PMC10883282.

Columns and labels:
Experiment in all cases: relative viability vs DMSO control (72 h) (fraction); higher = more viable cells
SW1353 = test system: SW1353
In short: (§1)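 ATPLite readings, expressed as percent growth and averaged over up to triplicate wells, provided relative viability. Before reading, sarcoma cell lines seeded in 384-well plates to reach 80–90% confluence received 2.5 µl of serially diluted compound after 24 h, from source plates of 10 mM to 0.0002 mM. Plates were held 72 h at 37 °C, 5% CO2, with 0.1% DMSO as vehicle and a 5 µM positive control. The data were rescaled to 1 for full and 0 for none.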

SW982 = test system: SW982
In short: as §1

HT1080 = test system: HT1080
In short: as §1

RD-ES = test system: RD-ES
In short: as §1

KHOS-240S = test system: KHOS-240S
In short: as §1

CCN1C(=O)N(c2c(F)c(OC)cc(OC)c2F)Cc2cnc3[nH]c(CN4CCOCC4)cc3c21 [Pemigatinib]
relative viability
Details | HT1080 | KHOS-240S | RD-ES | SW982 | SW1353
0.00017 µM | 1.05 | 1.03 | 0.959 | 0.989 | 1.06
0.00051 µM | 1.09 | 1.03 | 0.951 | 0.978 | 1.02
0.00152 µM | 1.06 | 0.999 | 0.953 | 0.98 | 1.02
0.00457 µM | 1.06 | 1 | 0.959 | 1 | 0.964
0.01372 µM | 1.036 | 0.943 | 0.964 | 0.985 | 0.886
0.04115 µM | 1.1 | 0.917 | 0.955 | 0.979 | 0.879
0.1235 µM | 1.09 | 0.884 | 0.952 | 0.992 | 0.863
0.3704 µM | 1.07 | 0.862 | 0.958 | 0.968 | 0.843
1.111 µM | 1.104 | 0.841 | 0.859 | 0.715 | 0.836
3.333 µM | 0.875 | 0.789 | 0.7215 | 0.511 | 0.716
10 µM | 0.807 | 0.687 | 0.54 | 0.438 | 0.539

CCN(CC)CCNC(=O)c1c(C)[nH]c(/C=C2\C(=O)Nc3ccc(F)cc32)c1C [Sunitinib]
relative viability
Details | HT1080 | KHOS-240S | RD-ES | SW982 | SW1353
0.00017 µM | 1.13 | 1.06 | 0.955 | 1.06 | 0.978
0.00051 µM | 1.051 | 1.06 | 0.952 | 1.07 | 0.994
0.00152 µM | 1.1 | 1.05 | 0.968 | 1.07 | 0.968
0.00457 µM | 1.06 | 1.05 | 0.97 | 1.05 | 0.984
0.01372 µM | 1.08 | 1.04 | 0.964 | 1.05 | 0.951
0.04115 µM | 1.07 | 1.03 | 0.958 | 1.07 | 0.972
0.1235 µM | 1.11 | 0.958 | 0.895 | 1.02 | 0.981
0.3704 µM | 1.14 | 0.875 | 0.752 | 0.716 | 1
1.111 µM | 1.06 | 0.655 | 0.276 | 0.413 | 0.988
3.333 µM | 0.113 | 0.204 | 0.0097 | 0.0113 | 0.017
10 µM | 0.00267 | 0.0104 | 0.00923 | 0.00423 | 0.0071
